Data taken from patent publication US12105023B2, “Multi-well plate readers and methods of their use” (QUELLTX, INC., priority 2021, dated 2024).
Read-outs that look alike come from different tables or passages of the source.

Assays:
Type in all cases: cell-based
[1] = test system: IPSC-derived cardiomyocyte; assay: Simultaneous voltage and calcium imaging in IPSC-derived cardiomyocytes; conditions: 10-test pulse blue stimulation protocol, 3 wells of each concentration, FIG. 41
Source text: A 24 objective plate reader of the invention was used to assay a 96-well plate that contained IPSC-derived cardiomyocyte expressing jRGECO1a calcium sensors, CheRiff actuators, and loaded with BeRST1 fluorescent voltage sensitive dye.
The line labeled “stim” indicates pulses of stimulating light transmitted by the plate reader to multiple wells of the 96-well plate, which caused actuation of CheRiff. This led to resulting changes in voltage and calcium ion concentrations in the cells. The resulting changes in voltage were reported by BeRST1, which was energized by red light transmitted from the plate reader. Calcium ion concentration was reported by jRGECO1, which was energized by yellow light. Thus, the plate reader was able to accurately stimulate an actuator and two reporters in multiple wells of a multi-well plate with three separate wavelengths of light. Moreover, the plate reader was able to simultaneously detect the levels of two separate emission wavelengths of light.
The voltage and calcium fluorescence waveforms in FIG. 40 show the average epoch of the 10-test pulse blue stimulation protocol.
Increasing concentration of Nifedipine altered both the voltage action potential waveform and calcium transients until it was completely extinguished at 0.3 uM.

Nav1.8 = biological target: T1, Nav1.8 (Homo sapiens, UniProt Q9Y5Y9); assay: Nav1.8 spiking HEK assay (optogenetic, 6-test pulse stimulation protocol)
T1 construct: expressed in transfected cells; host or cells: HEK cells co-expressing CheRiff-GFP and Kir2.1, with BeRST dye as the voltage sensor
T1 sequence (Q9Y5Y9 whole entry): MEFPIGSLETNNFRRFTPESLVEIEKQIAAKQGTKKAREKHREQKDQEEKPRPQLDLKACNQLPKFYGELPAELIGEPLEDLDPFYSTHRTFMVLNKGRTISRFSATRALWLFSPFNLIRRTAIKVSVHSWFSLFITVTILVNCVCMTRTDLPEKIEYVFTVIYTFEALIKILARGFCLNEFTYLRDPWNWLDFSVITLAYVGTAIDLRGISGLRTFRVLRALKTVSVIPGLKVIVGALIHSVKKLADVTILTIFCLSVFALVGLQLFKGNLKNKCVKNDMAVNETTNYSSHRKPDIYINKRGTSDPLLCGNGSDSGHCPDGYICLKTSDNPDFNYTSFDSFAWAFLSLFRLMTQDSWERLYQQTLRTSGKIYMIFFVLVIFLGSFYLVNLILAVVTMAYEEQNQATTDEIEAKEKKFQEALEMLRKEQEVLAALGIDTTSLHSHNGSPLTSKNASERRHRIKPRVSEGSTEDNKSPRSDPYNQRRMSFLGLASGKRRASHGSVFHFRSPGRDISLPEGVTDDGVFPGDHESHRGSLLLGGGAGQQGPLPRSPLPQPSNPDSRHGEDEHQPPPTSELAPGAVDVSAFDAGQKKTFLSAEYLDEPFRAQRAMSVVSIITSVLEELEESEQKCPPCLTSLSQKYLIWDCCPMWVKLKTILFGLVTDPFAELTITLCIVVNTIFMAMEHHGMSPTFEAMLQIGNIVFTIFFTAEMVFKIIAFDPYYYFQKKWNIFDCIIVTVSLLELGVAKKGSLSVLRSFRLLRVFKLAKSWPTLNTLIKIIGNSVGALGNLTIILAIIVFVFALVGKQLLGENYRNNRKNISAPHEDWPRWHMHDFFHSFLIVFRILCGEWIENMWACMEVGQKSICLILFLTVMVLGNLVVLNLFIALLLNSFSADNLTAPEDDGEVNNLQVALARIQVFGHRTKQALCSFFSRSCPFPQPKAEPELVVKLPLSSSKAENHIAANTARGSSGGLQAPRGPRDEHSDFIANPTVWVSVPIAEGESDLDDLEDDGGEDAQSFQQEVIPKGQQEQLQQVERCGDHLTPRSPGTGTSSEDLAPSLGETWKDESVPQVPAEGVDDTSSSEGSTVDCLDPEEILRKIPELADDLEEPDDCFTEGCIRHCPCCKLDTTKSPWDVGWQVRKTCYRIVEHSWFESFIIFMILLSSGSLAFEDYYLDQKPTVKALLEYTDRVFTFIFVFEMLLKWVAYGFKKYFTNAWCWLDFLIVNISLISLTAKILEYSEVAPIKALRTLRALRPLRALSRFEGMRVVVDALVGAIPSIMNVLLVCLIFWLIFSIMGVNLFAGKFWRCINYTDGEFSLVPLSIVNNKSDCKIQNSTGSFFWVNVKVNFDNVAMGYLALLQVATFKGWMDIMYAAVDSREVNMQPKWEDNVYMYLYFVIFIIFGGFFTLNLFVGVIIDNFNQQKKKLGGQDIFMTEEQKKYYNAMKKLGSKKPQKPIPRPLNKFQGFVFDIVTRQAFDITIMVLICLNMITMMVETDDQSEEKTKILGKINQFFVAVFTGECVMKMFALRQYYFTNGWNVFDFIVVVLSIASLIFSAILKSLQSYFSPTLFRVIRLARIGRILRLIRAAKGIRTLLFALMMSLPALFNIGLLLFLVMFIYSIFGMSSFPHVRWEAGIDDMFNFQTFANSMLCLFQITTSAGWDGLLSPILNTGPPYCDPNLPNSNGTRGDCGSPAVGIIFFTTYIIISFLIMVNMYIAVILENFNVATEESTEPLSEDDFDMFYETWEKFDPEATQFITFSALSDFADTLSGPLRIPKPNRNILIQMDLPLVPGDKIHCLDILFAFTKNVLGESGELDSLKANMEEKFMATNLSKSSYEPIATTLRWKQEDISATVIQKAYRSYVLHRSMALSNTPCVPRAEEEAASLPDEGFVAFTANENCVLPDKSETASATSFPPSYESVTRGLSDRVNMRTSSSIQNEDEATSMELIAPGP

Nav1.7 = biological target: T2, Nav1.7 (Homo sapiens, UniProt Q15858); assay: Nav1.7 spiking HEK assay
T2 construct: expressed in transfected cells; host or cells: HEK cells co-expressing CheRiff, Kir2.1 (lentiviral transduction) and a voltage reporter
T2 sequence (Q15858 whole entry): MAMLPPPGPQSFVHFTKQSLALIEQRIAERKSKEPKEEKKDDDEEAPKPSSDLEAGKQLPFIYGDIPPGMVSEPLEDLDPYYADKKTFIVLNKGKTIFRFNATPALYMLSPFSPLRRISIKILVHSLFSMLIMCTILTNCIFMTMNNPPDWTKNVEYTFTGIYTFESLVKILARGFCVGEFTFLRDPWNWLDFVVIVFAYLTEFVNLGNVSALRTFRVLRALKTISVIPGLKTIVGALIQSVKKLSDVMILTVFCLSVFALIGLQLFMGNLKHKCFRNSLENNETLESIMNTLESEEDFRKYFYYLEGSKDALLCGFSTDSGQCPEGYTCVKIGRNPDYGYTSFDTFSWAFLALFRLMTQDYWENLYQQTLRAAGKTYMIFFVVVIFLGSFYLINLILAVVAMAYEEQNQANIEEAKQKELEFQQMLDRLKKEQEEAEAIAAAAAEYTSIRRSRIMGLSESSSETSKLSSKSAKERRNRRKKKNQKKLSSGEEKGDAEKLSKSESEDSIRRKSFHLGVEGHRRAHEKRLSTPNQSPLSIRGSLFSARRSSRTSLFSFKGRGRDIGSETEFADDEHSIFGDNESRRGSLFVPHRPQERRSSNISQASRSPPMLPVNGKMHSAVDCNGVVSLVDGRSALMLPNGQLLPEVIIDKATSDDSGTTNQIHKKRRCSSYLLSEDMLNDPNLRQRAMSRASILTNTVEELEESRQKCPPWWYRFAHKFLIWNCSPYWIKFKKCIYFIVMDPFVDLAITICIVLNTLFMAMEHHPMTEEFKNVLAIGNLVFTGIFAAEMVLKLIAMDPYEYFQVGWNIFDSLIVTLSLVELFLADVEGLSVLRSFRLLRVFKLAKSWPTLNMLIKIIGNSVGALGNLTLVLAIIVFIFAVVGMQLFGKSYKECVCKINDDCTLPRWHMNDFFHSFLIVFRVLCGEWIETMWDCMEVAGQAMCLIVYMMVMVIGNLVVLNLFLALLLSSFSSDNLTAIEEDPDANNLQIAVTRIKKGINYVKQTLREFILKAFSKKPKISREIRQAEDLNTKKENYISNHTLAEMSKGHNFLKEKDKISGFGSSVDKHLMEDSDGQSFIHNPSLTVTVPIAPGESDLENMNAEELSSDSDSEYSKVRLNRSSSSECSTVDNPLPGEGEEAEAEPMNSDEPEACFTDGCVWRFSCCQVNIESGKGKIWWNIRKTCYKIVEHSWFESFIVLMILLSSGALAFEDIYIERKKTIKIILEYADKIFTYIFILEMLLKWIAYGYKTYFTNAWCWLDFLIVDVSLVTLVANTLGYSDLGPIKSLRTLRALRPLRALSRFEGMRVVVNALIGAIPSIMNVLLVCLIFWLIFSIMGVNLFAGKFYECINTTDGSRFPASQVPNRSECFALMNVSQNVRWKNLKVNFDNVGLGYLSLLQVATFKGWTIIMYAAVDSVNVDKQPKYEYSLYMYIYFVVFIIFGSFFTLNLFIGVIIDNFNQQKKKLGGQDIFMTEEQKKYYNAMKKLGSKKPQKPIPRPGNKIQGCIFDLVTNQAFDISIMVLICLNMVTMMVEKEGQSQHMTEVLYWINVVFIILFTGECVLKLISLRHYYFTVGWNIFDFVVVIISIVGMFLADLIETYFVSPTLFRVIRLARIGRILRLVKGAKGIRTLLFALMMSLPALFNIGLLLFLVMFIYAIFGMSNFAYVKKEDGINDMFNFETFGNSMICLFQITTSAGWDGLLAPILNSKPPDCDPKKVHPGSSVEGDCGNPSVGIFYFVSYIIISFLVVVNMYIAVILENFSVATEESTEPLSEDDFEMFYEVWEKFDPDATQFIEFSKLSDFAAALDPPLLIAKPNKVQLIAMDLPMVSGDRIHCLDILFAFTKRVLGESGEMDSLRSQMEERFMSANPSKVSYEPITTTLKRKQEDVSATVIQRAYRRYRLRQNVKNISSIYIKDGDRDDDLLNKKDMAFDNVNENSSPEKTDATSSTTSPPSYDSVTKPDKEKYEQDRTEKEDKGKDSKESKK

## COC(=O)C1=C(C)NC(C)=C(C(=O)OC)C1c1ccccc1[N+](=O)[O-] [Nifedipine]
[1]
  concentration at which voltage action potential waveform and calcium transients were completely extinguished: 0.3 µM

## CNC(=O)c1ccc(-c2cc(Cl)cc(Cl)c2Cl)c(N)n1 [PF-01247324]
Nav1.8; Nav1.8 spiking HEK assay, dose response curves, FIG. 43D, read-out: IC50, block of Nav1.8
  IC50: 130 nM
Nav1.8; Nav1.8 versus Nav1.7 spiking HEK assays, FIG. 43D
  selectivity against Nav1.7: 40 fold
Nav1.8; dose response curves at TP5 and TP1, FIG. 43C
  test pulse preference of block (TP1 versus TP5): preferentially blocks TP5
Nav1.8; representative traces, 6-test pulse protocol, FIG. 43B
  test pulse at which blocker is more effective (slope of repolarization): more effective after the long pulse (TP5)

## NC1=N[C@H](O)[C@H]2[C@H]3O[C@]4(O)O[C@@H]([C@@H](O)[C@@]2(N1)[C@@H]4O)[C@]3(O)CO [TTX, Tetrodotoxin]
Nav1.7
  selectivity for Nav1.7: more than 1,000 fold
Nav1.8
  test pulse preference of block (TP1 versus TP5): equivalently blocks TP1 and TP5
